In the data set the test system is THP-1 cells. Briefly: Cytotoxicity of TCEP digestion media (LIVE/DEAD stain, flow cytometry). The data set is classed as cell-based. The note with it: TCEP 0.1 mM to 100 mM, 10 minutes. How it is done: Cell death was analyzed by flow cytometry after staining using the LIVE/DEAD fixable Violet Dead Cell Stain. Multiple comparisons among groups were determined using one-way ANOVA followed by a post-hoc test. P-value: *p<0.05, **p<0.01.
The ability to induce on-demand digestion of the MNs using a reducing agent (Tris (2-carboxyethil) phosphine, TCEP) was also characterized. […] THP-1 cells were incubated with different concentrations of digestion media (TCEP solution in supplemented media), ranging from 0.1 mM to 100 mM, for 10 minutes. Thereafter, digestion media was removed, and cells were stained using the LIVE/DEAD fixable Violet Dead Cell Stain Kit (ThermoFisher Scientific, USA) following the manufacturer's guidelines. Dead cells were analyzed by flow cytometry using a BD LSRFortessa™ flow cytometer.
Background: In flow cytometry, cells or beads pass a laser one at a time.

Molecules are shown by their SMILES.

On to `O=C(O)CCP(CCC(=O)O)CCC(=O)O` [TCEP, tris(2-carboxyethyl)phosphine], for which the cell viability entry is “did not affect cell viability”.

The values are drawn from patent US20240149033A1, “MICRONEEDLE COMPOSITIONS AND METHODS OF DELIVERY USING THE SAME” (The Brigham and Women`s Hospital, Inc., priority 2021, published 2024).
